Experimental data published in patent publication US11505543B2, “4-oxo-3,4-dihydroquinazoline compounds as inhibitors of human immunodeficiency virus replication” (VIIV HEALTHCARE UK (NO.5) LIMITED, priority 2018, dated 2022).

Assays:
Format in all cases: cell-based
uninfected MT2 cells = experiment: Compound cytotoxicity, XTT-based colorimetric assay; conditions: day 4, XTT
In short: (§1)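 Run under the antiviral-assay protocol but without virus. Viability was read on day 4 and CC50 values were derived from the readout.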

[1] = system: recombinant NL4-3 virus (nef section replaced with Renilla luciferase gene) in MT-2 cells; experiment: HIV cell culture assay (antiviral activity, luciferase readout); conditions: serial dilutions of compound
In short: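 EC50 was derived by median-effect curve fitting of luciferase activity. The signal comes from MT-2 cells infected for 4–5 days with 293T-produced NL4-3 reporter virus, nef partly replaced by Renilla luciferase, in the presence of serially diluted compound.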

[2] = Compound cytotoxicity, XTT-based colorimetric assay; conditions: human, uninfected MT2 cells, day 4, XTT
In short: as §1

[3] = MT-2 cells infected for 4-5 days with recombinant NL4-3 Renilla luciferase virus
[4] = Renilla, NL43, MT-2 cells infected for 4-5 days with recombinant NL4-3 Renilla luciferase virus

Row | SMILES | CC50 (uninfected MT2 cells) | EC50 [1, 3] | EC50 [1, 4] | CC50 at 4 day [2]
1 | O=C(Cn1nc(C(F)F)c2c1C(F)(F)[C@@H]1C[C@H]21)N[C@@H](Cc1cc(F)cc(F)c1)c1nc2cc(-c3ccccc3F)ccc2c(=O)n1-c1ccc(Cl)c2c(NS(=O)(=O)C3CC3)nn(CC(F)F)c12 (atropisomer, axis not shown; (aR)) [Example 8, N-((S)-1-(3-(4-chloro-3-(cyclopropanesulfonamido)-1-(2,2-difluoroethyl)-1H-indazol-7-yl)-7-(2-fluorophenyl)-4-oxo-3,4-dihydroquinazolin-2-yl)-2-(3,5-difluorophenyl)ethyl)-2-((3bS,4aR)-3-(difluoromethyl)-5,5-difluoro-3b,4,4a,5-tetrahydro-1H-cyclopropa[3,4]cyclopenta[1,2-c]pyrazol-1-yl)acetamide] | > 1000 nM | 0.613 nM |  | 
2 | O=C(Cn1nc(C(F)F)c2c1C(F)(F)[C@@H]1C[C@H]21)N[C@@H](Cc1cc(F)cc(F)c1)c1nc2cc(-c3ccccc3F)ccc2c(=O)n1-c1ccc(Cl)c2c(NS(=O)(=O)C3CC3)nn(CC(F)F)c12 (atropisomer, axis not shown; (aR)) [Example 115, N-((S)-1-(3-(4-chloro-3-(cyclopropanesulfonamido)-1-(2,2-difluoroethyl)-1H-indazol-7-yl)-7-(2-fluorophenyl)-4-oxo-3,4-dihydroquinazolin-2-yl)-2-(3,5-difluorophenyl)ethyl)-2-((3bS,4aR)-3-(difluoromethyl)-5,5-difluoro-3b,4,4a,5-tetrahydro-1H-cyclopropa[3,4]cyclopenta[1,2-c]pyrazol-1-yl)acetamide] | > 10000 nM |  | 0.469 nM | 
3 | Cn1nc(NS(C)(=O)=O)c2c(Cl)ccc(-n3c([C@H](Cc4cc(F)cc(F)c4)NC(=O)Cn4ccc(C5CC5)n4)nc4cc(-c5ccccc5F)ccc4c3=O)c21 (single isomer, unassigned) [Example 4] | > 1000 nM | 1.1 nM |  | 
4 | Cn1nc(NS(C)(=O)=O)c2c(Cl)ccc(-n3c([C@H](Cc4cc(F)cc(F)c4)NC(=O)Cn4nc(C(F)F)c5c4C(F)(F)[C@@H]4C[C@H]54)nc4cc(-c5ccccc5F)ccc4c3=O)c21 (single isomer, unassigned) [Example 5] | > 1000 nM |  | 62.7 nM | 
5 | Cn1nc(NS(C)(=O)=O)c2c(Cl)ccc(-n3c([C@H](Cc4cc(F)cc(F)c4)NC(=O)Cn4nc(C(F)F)c5c4C(F)(F)[C@@H]4C[C@H]54)nc4cc(-c5ccccc5F)ccc4c3=O)c21 (single isomer, unassigned) [Example 6] | > 1000 nM | 0.3 nM |  | 
6 | CC(C(=O)N[C@@H](Cc1cc(F)cc(F)c1)c1nc2cc(-c3ccccc3F)ccc2c(=O)n1-c1ccc(Cl)c2c(NS(=O)(=O)C3CC3)nn(CC(F)F)c12)n1ccc(C2CC2)n1 (single isomer, unassigned) [Example 138] | > 500 nM | 9 nM |  | 
7 | Cn1nc(NS(C)(=O)=O)c2c(Cl)ccc(-n3c([C@H](Cc4cc(F)cc(F)c4)NC(=O)Cn4nc(C(F)F)c5c4C(F)(F)[C@@H]4C[C@H]54)nc4cc(-c5ccc(F)cc5)ccc4c3=O)c21 [Example 193, N-((S)-1-(3-(4-chloro-1-methyl-3-(methylsulfonamido)-1H-indazol-7-yl)-7-(4-fluorophenyl)-4-oxo-3,4-dihydroquinazolin-2-yl)-2-(3,5-difluorophenyl)ethyl)-2-((3bS,4aR)-3-(difluoromethyl)-5,5-difluoro-3b,4,4a,5-tetrahydro-1H-cyclopropa[3,4]cyclopenta[1,2-c]pyrazol-1-yl)acetamide] |  |  | 0.95 nM | > 1000 nM
8 | Cn1nc(NS(C)(=O)=O)c2c(Cl)ccc(-n3c([C@H](Cc4cc(F)cc(F)c4)NC(=O)Cn4nc(C(F)F)c5c4C(F)(F)[C@@H]4C[C@H]54)nc4cc(-c5ccc(Cl)c(F)c5)ccc4c3=O)c21 [Example 194, N-((S)-1-(3-(4-chloro-1-methyl-3-(methylsulfonamido)-1H-indazol-7-yl)-7-(4-chloro-3-fluorophenyl)-4-oxo-3,4-dihydroquinazolin-2-yl)-2-(3,5-difluorophenyl)ethyl)-2-((3bS,4aR)-3-(difluoromethyl)-5,5-difluoro-3b,4,4a,5-tetrahydro-1H-cyclopropa[3,4]cyclopenta[1,2-c]pyrazol-1-yl)acetamide] |  |  | 7.7 nM | > 1000 nM
9 | Cn1nc(NS(C)(=O)=O)c2c(Cl)ccc(-n3c([C@H](Cc4cc(F)cc(F)c4)NC(=O)Cn4nc(C(F)F)c5c4C(F)(F)[C@@H]4C[C@H]54)nc4cc(-c5ccccc5)ccc4c3=O)c21 [Example 195, N-((S)-1-(3-(4-chloro-1-methyl-3-(methylsulfonamido)-1H-indazol-7-yl)-4-oxo-7-phenyl-3,4-dihydroquinazolin-2-yl)-2-(3,5-difluorophenyl)ethyl)-2-((3bS,4aR)-3-(difluoromethyl)-5,5-difluoro-3b,4,4a,5-tetrahydro-1H-cyclopropa[3,4]cyclopenta[1,2-c]pyrazol-1-yl)acetamide] |  |  | 0.36 nM | > 1000 nM
